Results reported in ChEMBL document CHEMBL1201862, “PubChem BioAssay data set” (2004).
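Method: 48-hour compound exposure of cells in 96-well plates, five concentrations, linear interpolation of endpoints. At the GI50, growth is halved.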 The source made the active and inactive calls. Rule as the data show it: active = GI50 up to about 1.1 µM and inactive = higher.

Key:
Experiment in all cases: NCI-60 cell line screen, 48 h
[1] = tested on: 786-0
[2] = tested on: A498
[3] = tested on: CAKI-1
[4] = tested on: COLO 205
[5] = tested on: EKVX
[6] = tested on: HOP-62
[7] = tested on: HOP-92
[8] = tested on: Hs-578T
[9] = tested on: IGROV-1
[10] = tested on: KM12
[11] = tested on: M14
[12] = tested on: MCF7
[13] = tested on: MOLT-4
[14] = tested on: NCI-H460
[15] = tested on: OVCAR-4
[16] = tested on: PC-3
[17] = tested on: SK-MEL-5
[18] = tested on: SN12C
[19] = tested on: U-251

Measured: GI50

Oc1ccccc1C(Sc1nc2ccccc2s1)Sc1nc2ccccc2s1
inactive: [1] > 100 µM | [2] > 100 µM | [3] 34.4 µM | [4] 52.4 µM | [5] 23.4 µM | [6] > 100 µM | [7] 22.8 µM | [8] 24.1 µM | [9] 29.9 µM | [10] 89.1 µM | [11] > 100 µM | [12] > 100 µM | [13] 44.2 µM | [14] > 100 µM | [15] 76.4 µM | [16] 67.1 µM | [17] 44 µM | [18] > 100 µM | [19] 57.7 µM

O=C(Nc1ccc(Cl)cc1)c1cc(S(=O)(=O)NC2=Nc3ccc(Cl)cc3C(c3ccccc3)N2)c(SSc2cc(Cl)c(C(=O)Nc3ccc(Cl)cc3)cc2S(=O)(=O)NC2=Nc3ccc(Cl)cc3C(c3ccccc3)N2)cc1Cl (stereo unspecified)
inactive: [1] > 100 µM | [2] > 100 µM | [3] > 100 µM | [4] > 100 µM | [5] > 100 µM | [6] > 100 µM | [7] 83.4 µM | [8] > 100 µM | [9] > 100 µM | [10] > 100 µM | [11] 46.1 µM | [12] > 100 µM | [13] 25.9 µM | [14] > 100 µM | [15] > 100 µM | [16] > 100 µM | [17] > 73.3 µM | [18] > 100 µM | [19] > 100 µM

COc1cc2c(cc1OC)C1Cc3ccccc3CCN1CC2 (stereo unspecified)
inactive: [1] 50 µM | [2] > 100 µM | [3] > 100 µM | [4] 64.4 µM | [5] > 100 µM | [6] > 100 µM | [7] 36.1 µM | [8] > 100 µM | [9] > 100 µM | [10] > 100 µM | [11] > 100 µM | [12] > 100 µM | [13] 35.1 µM | [14] > 100 µM | [15] > 100 µM | [16] 62.1 µM | [17] 58.1 µM | [18] > 100 µM | [19] > 100 µM

O=Cc1c2c(cc3c1CC1(C3)Cc3cc4c(c(C=O)c3C1)CCCC4)CCCC2
inactive: [1] > 31.6 µM | [2] > 10 µM | [3] 46.5 µM | [4] 25.1 µM | [5] 23.9 µM | [6] > 31.6 µM | [7] 15.5 µM | [8] > 31.6 µM | [9] 23 µM | [10] 21.6 µM | [11] > 31.6 µM | [12] > 31.6 µM | [13] 13.3 µM | [14] 52.2 µM | [15] > 31.6 µM | [16] 19.9 µM | [17] > 31.6 µM | [18] > 31.6 µM | [19] > 31.6 µM

COc1cc(-c2cc(=O)c3cc4c(=O)cc(-c5cc(OC)c(OC)c(OC)c5)oc4cc3o2)cc(OC)c1OC
inactive: [1] 14.3 µM | [2] 24.7 µM | [3] 23.2 µM | [4] > 100 µM | [5] > 100 µM | [6] 12.6 µM | [7] 14.6 µM | [8] 20.1 µM | [9] 22.7 µM | [10] > 100 µM | [11] 60.3 µM | [12] > 100 µM | [13] > 88.7 µM | [14] > 100 µM | [15] > 82.8 µM | [16] > 100 µM | [17] > 100 µM | [18] 32.4 µM | [19] 8.59 µM

Cc1ccc(/N=N/c2c(C)nn(C(=O)CC(=O)Nc3ccc(Cl)cc3)c2C)cc1C
inactive: [1] 53 µM | [2] 70.1 µM | [3] > 100 µM | [4] 90.4 µM | [5] 28.2 µM | [6] 34 µM | [7] 12.4 µM | [8] 7.05 µM | [9] 37.2 µM | [10] > 100 µM | [11] > 100 µM | [12] > 100 µM | [13] 28.7 µM | [14] > 100 µM | [15] > 100 µM | [16] > 100 µM | [17] > 100 µM | [18] > 100 µM | [19] 26.6 µM

N#Cc1c(O)c(/N=N/c2ccc(Cl)cc2)c(=O)n2c1[nH]c1ccccc12
inactive: [1] 48.6 µM | [2] 37.6 µM | [3] 78.3 µM | [4] 52.2 µM | [5] > 100 µM | [6] 17.5 µM | [7] 26.1 µM | [8] 52.1 µM | [9] 73.1 µM | [10] 47 µM | [11] 36 µM | [12] 43.5 µM | [13] 29.6 µM | [14] 45.6 µM | [15] 67 µM | [16] 36.2 µM | [17] 53.7 µM | [18] 46.5 µM | [19] 37.5 µM

CSc1nc2c3ccccc3ccn2c1C(=O)N/N=C/c1ccccc1
inactive: [1] 15.5 µM | [2] 31.5 µM | [3] 14.9 µM | [4] > 73.6 µM | [5] > 100 µM | [6] 13 µM | [7] 1.65 µM | [8] 30.8 µM | [9] 33.7 µM | [10] > 100 µM | [11] > 100 µM | [12] > 46.3 µM | [13] > 100 µM | [14] 17.3 µM | [15] 14.1 µM | [16] > 100 µM | [17] > 74.8 µM | [18] 28.1 µM | [19] 15.8 µM

C[N+]1(CC[N+]2(C)CCCC2c2cccnc2)CCCC1c1cccnc1 (stereo unspecified)
inactive: [1] 30.4 µM | [2] > 100 µM | [3] > 100 µM | [4] 86.1 µM | [5] 18.7 µM | [6] > 100 µM | [7] > 100 µM | [8] > 100 µM | [9] > 100 µM | [10] > 100 µM | [11] > 100 µM | [12] > 100 µM | [13] 2.75 µM | [14] > 100 µM | [15] > 100 µM | [16] > 100 µM | [17] > 100 µM | [18] > 100 µM | [19] 60 µM

O=C(CCSC1=NCCCN1)c1ccc(F)cc1
inactive: [1] 4.02 µM | [2] 20.6 µM | [3] 17.2 µM | [4] 5.98 µM | [5] 12.7 µM | [6] 27.8 µM | [7] 20.6 µM | [8] 22 µM | [9] 18 µM | [10] 19.7 µM | [11] 15.6 µM | [12] 4.41 µM | [13] 2.62 µM | [14] 22 µM | [15] 21.6 µM | [16] 14.9 µM | [17] 18.9 µM | [18] 22.2 µM | [19] 17.5 µM

NN/C(=N\S(=O)(=O)c1cc2ccccc2o1)Nc1ccc(Cl)cc1
inactive: [1] 44 µM | [2] > 100 µM | [3] > 100 µM | [4] > 100 µM | [5] 91.2 µM | [6] 48.8 µM | [7] 20.4 µM | [8] 39.8 µM | [9] 53 µM | [10] > 100 µM | [11] > 100 µM | [12] > 100 µM | [13] > 100 µM | [14] > 100 µM | [15] > 100 µM | [16] > 100 µM | [17] > 100 µM | [18] > 100 µM | [19] 46.6 µM

O=C(O)CC(Nc1ccccc1)C(=O)O (stereo unspecified)
inactive: [1] > 100 µM | [2] > 100 µM | [3] > 100 µM | [4] > 100 µM | [5] > 100 µM | [6] > 100 µM | [7] > 100 µM | [8] > 100 µM | [9] > 100 µM | [10] > 100 µM | [11] > 100 µM | [12] > 100 µM | [13] > 100 µM | [14] > 100 µM | [15] > 100 µM | [16] > 100 µM | [17] > 100 µM | [18] > 100 µM | [19] > 100 µM

CC(C)OP(=O)(OC(C)C)c1c(N)n[nH]c1Nc1ccccc1
inactive: [2] > 100 µM | [3] > 100 µM | [4] > 100 µM | [5] > 100 µM | [6] > 100 µM | [7] > 100 µM | [8] 33 µM | [9] > 100 µM | [10] > 100 µM | [11] > 100 µM | [12] > 100 µM | [13] > 100 µM | [14] > 100 µM | [15] > 100 µM | [16] > 100 µM | [17] > 100 µM | [19] > 100 µM

CCOc1cc(NC(C)=O)ccc1C(=O)NN1C(=O)C(Cl)C1c1ccccc1 (stereo unspecified)
inactive: [1] 14.6 µM | [2] 17.4 µM | [3] 15.4 µM | [4] 14.2 µM | [5] 14.9 µM | [6] 20.5 µM | [7] 12.9 µM | [8] 21.2 µM | [9] 3.92 µM | [10] 17.3 µM | [11] 12.4 µM | [12] 7.74 µM | [13] 3.68 µM | [14] 16 µM | [15] 13.5 µM | [16] 14 µM | [17] 10.1 µM | [18] 13.9 µM

Cc1ccc(S(=O)(=O)N/N=C2/C3CC4CCC2C4C3)cc1 (stereo unspecified)
inactive: [1] > 100 µM | [2] > 100 µM | [3] > 100 µM | [4] > 100 µM | [5] > 100 µM | [6] > 100 µM | [7] > 100 µM | [8] > 100 µM | [9] > 100 µM | [10] > 100 µM | [11] > 100 µM | [12] > 100 µM | [14] > 100 µM | [15] > 100 µM | [16] > 100 µM | [17] > 100 µM | [18] > 100 µM | [19] > 100 µM
